Measurements from patent US6737383B1, “Herbicidal oxadiazolidines” (priority 1999, dated 2004).

Assays:
soybean = experiment: Test B pre/postemergence soybean; assay type: in vivo, Glycine max
Method in brief: (§1)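 Test chemicals in a non-phytotoxic solvent mixture with surfactant were sprayed preemergence onto planted seeds and postemergence onto plants 2 to 18 cm tall (1- to 4-leaf stage). After twelve to sixteen days in a greenhouse, injury was visually rated against untreated controls from 0 (no effect) to 10 (complete control).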

bedstraw = experiment: Test B pre/postemergence bedstraw; assay type: in vivo, Galium aparine
Method in brief: as §1

surinam grass = experiment: Test B pre/postemergence surinam grass; assay type: in vivo, Brachiaria decumbens
Method in brief: as §1

rape = experiment: Test B pre/postemergence rape; assay type: in vivo, Brassica napus
Method in brief: as §1

duck salad = experiment: Test B flood test duck salad; assay type: in vivo, Heteranthera limosa
Method in brief: (§2)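 Read-out is a visual response score from 0 (no effect) to 10 (complete control), assigned by comparison with untreated controls. Treatment was applied at the 2-leaf stage, and plants stayed in the greenhouse for twelve to sixteen days before scoring.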

sugar beet = experiment: Test B pre/postemergence sugar beet; assay type: in vivo, Beta vulgaris
Method in brief: as §1

morningglory = experiment: Test B pre/postemergence morningglory; assay type: in vivo, Ipomoea hederacea
Method in brief: as §1

pigweed = experiment: Test B pre/postemergence pigweed; assay type: in vivo, Amaranthus retroflexus
Method in brief: as §1

cocklebur = experiment: Test B pre/postemergence cocklebur; assay type: in vivo, Xanthium strumarium
Method in brief: as §1

smallflower flatsedge = experiment: Test B flood test smallflower flatsedge; assay type: in vivo, Cyperus difformis
Method in brief: as §2

giant foxtail = experiment: Test B pre/postemergence giant foxtail; assay type: in vivo, Setaria faberii
Method in brief: as §1

purple nutsedge = experiment: Test B pre/postemergence purple nutsedge; assay type: in vivo, Cyperus rotundus
Method in brief: as §1

blackgrass = experiment: Test B pre/postemergence blackgrass; assay type: in vivo, Alopecurus myosuroides
Method in brief: as §1

wheat = experiment: Test B pre/postemergence wheat; assay type: in vivo, Triticum aestivum
Method in brief: as §1

bamyardgrass = experiment: Test B flood test barnyardgrass; assay type: in vivo, Echinochloa crus-galli
Method in brief: as §2

wild oat = experiment: Test B pre/postemergence wild oat; assay type: in vivo, Avena fatua
Method in brief: as §1

[1] = Postemergence, Rate 62 g/ha, scale 0 to 10, 0 is no effect, 10 is complete control
[2] = Postemergence, Rate 125 g/ha, scale of 0 to 10 where 0 is no effect and 10 is complete control
[3] = Postemergence, Rate 250 g/ha, scale of 0 to 10, 0 is no effect, 10 is complete control
[4] = Preemergence, Rate 62 g/ha, scale of 0 to 10 where 0 is no effect and 10 is complete control
[5] = Preemergence, Rate 125 g/ha, scale of 0 to 10 where 0 is no effect and 10 is complete control
[6] = Preemergence, Rate 250 g/ha, scale 0 to 10 (0 no effect, 10 complete control)
[7] = Preemergence, Rate 500 g/ha, scale of 0 to 10 where 0 is no effect and 10 is complete control
[8] = Postemergence, Rate 500 g/ha, scale of 0 to 10 where 0 is no effect and 10 is complete control
[9] = Rate 62 g/ha, flood test species, Pre-emergence, visual evaluation after twelve to sixteen days
[10] = Rate 125 g/ha, under heading Pre-emergence, flood test species, visual evaluation after twelve to sixteen days
[11] = Rate 250 g/ha, Pre-emergence (flood test species), scale 0 to 10, 0 is no effect, 10 is complete control
[12] = Rate 500 g/ha, Pre-emergence section of Table B, 0 to 10 scale (0 no effect, 10 complete control)

C=C(Cl)Cn1c(=O)on(C(=O)N(c2ccc(F)cc2F)C(C)C)c1=O [Compound 634]
Plant response rating, Soybean (soybean; [1]): 3
Plant response rating, Soybean (soybean; [2]): 2
Soybean plant response rating (soybean; [3]): 3
Soybean plant response rating (soybean; [4]): 0
Soybean plant response rating (soybean; [5]): 0
Plant response rating, Soybean (soybean; [6]): 0
Plant response rating, Soybean (soybean; [7]): 0
Plant response rating, Bedstraw (bedstraw; [1]): 0
Plant response rating, Bedstraw (bedstraw; [2]): 0
Bedstraw plant response rating (bedstraw; [3]): 0
Bedstraw plant response rating (bedstraw; [5]): 0
Plant response rating, B. signalgrass (surinam grass; [1]): 0
Plant response rating, B. signalgrass (surinam grass; [2]): 0
B. signalgrass plant response rating (surinam grass; [3]): 0
Plant response rating, B. signalgrass (surinam grass; [8]): 5
B. signalgrass plant response rating (surinam grass; [4]): 1
B. signalgrass plant response rating (surinam grass; [5]): 5
Plant response rating, B. signalgrass (surinam grass; [6]): 7
Plant response rating, B. signalgrass (surinam grass; [7]): 10
Plant response rating, Rape (rape; [1]): 0
Plant response rating, Rape (rape; [2]): 0
Rape plant response rating (rape; [3]): 0
Plant response rating, Rape (rape; [8]): 0
Rape plant response rating (rape; [4]): 0
Rape plant response rating (rape; [5]): 2
Plant response rating, Rape (rape; [6]): 6
Plant response rating, Rape (rape; [7]): 7
Plant response rating, Ducksalad (0 to 10 scale, 0 is no effect, 10 is complete control) (duck salad; [9]): 0
Ducksalad plant response rating (0 to 10 scale, 0 is no effect, 10 is complete control) (duck salad; [10]): 0
Ducksalad plant response rating (duck salad; [11]): 0
Ducksalad plant response rating (duck salad; [12]): 0
Plant response rating, Sugarbeets (sugar beet; [1]): 0
Plant response rating, Sugarbeets (sugar beet; [2]): 0
Sugarbeets plant response rating (sugar beet; [3]): 0
Sugarbeets plant response rating (sugar beet; [4]): 0
Sugarbeets plant response rating (sugar beet; [5]): 0
Plant response rating, Sugarbeets (sugar beet; [6]): 5
Plant response rating, Sugarbeets (sugar beet; [7]): 6
Plant response rating, Morningglory (morningglory; [1]): 1
Plant response rating, Morningglory (morningglory; [2]): 1
Morningglory plant response rating (morningglory; [3]): 2
Plant response rating, Morningglory (morningglory; [8]): 2
Morningglory plant response rating (morningglory; [4]): 0
Morningglory plant response rating (morningglory; [5]): 0
Plant response rating, Morningglory (morningglory; [6]): 0
Plant response rating, Morningglory (morningglory; [7]): 0
Plant response rating, Redroot pigweed (pigweed; [1]): 1
Plant response rating, Redroot pigweed (pigweed; [2]): 2
Redroot pigweed plant response rating (pigweed; [3]): 2
Redroot pigweed plant response rating (pigweed; [4]): 0
Redroot pigweed plant response rating (pigweed; [5]): 4
Plant response rating, Redroot pigweed (pigweed; [6]): 10
Plant response rating, Redroot pigweed (pigweed; [7]): 10
Plant response rating, Cocklebur (cocklebur; [1]): 1
Plant response rating, Cocklebur (cocklebur; [2]): 1
Cocklebur plant response rating (cocklebur; [3]): 2
Plant response rating, Cocklebur (cocklebur; [8]): 2
Cocklebur plant response rating (cocklebur; [4]): 0
Cocklebur plant response rating (cocklebur; [5]): 0
Plant response rating, Cocklebur (cocklebur; [6]): 0
Plant response rating, Cocklebur (cocklebur; [7]): 0
Plant response rating, S. Flatsedge (0 to 10 scale, 0 is no effect, 10 is complete control) (smallflower flatsedge; [9]): 0
S. Flatsedge plant response rating (0 to 10 scale, 0 is no effect, 10 is complete control) (smallflower flatsedge; [10]): 0
S. Flatsedge plant response rating (smallflower flatsedge; [11]): 0
S. Flatsedge plant response rating (smallflower flatsedge; [12]): 0
Plant response rating, Giant foxtail (giant foxtail; [1]): 4
Plant response rating, Giant foxtail (giant foxtail; [2]): 8
Giant foxtail plant response rating (giant foxtail; [3]): 9
Plant response rating, Giant foxtail (giant foxtail; [8]): 9
Giant foxtail plant response rating (giant foxtail; [4]): 9
Giant foxtail plant response rating (giant foxtail; [5]): 10
Plant response rating, Giant foxtail (giant foxtail; [6]): 10
Plant response rating, Giant foxtail (giant foxtail; [7]): 10
Plant response rating, Nutsedge (purple nutsedge; [1]): 0
Plant response rating, Nutsedge (purple nutsedge; [2]): 0
Plant response rating, Nutsedge (purple nutsedge; [8]): 0
Nutsedge plant response rating (purple nutsedge; [4]): 0
Nutsedge plant response rating (purple nutsedge; [5]): 0
Plant response rating, Nutsedge (purple nutsedge; [6]): 0
Plant response rating, Nutsedge (purple nutsedge; [7]): 0
Plant response rating, Blackgrass (blackgrass; [1]): 2
Plant response rating, Blackgrass (blackgrass; [2]): 6
Blackgrass plant response rating (blackgrass; [3]): 8
Plant response rating, Blackgrass (blackgrass; [8]): 8
Blackgrass plant response rating (blackgrass; [4]): 4
Blackgrass plant response rating (blackgrass; [5]): 6
Plant response rating, Blackgrass (blackgrass; [6]): 8
Plant response rating, Blackgrass (blackgrass; [7]): 9
Plant response rating, Wheat (wheat; [1]): 0
Plant response rating, Wheat (wheat; [2]): 0
Wheat plant response rating (wheat; [3]): 0
Wheat plant response rating (wheat; [4]): 0
Wheat plant response rating (wheat; [5]): 0
Plant response rating, Wheat (wheat; [6]): 0
Plant response rating, Wheat (wheat; [7]): 0
Plant response rating, Barnyardgrass (0 to 10 scale, 0 is no effect, 10 is complete control) (bamyardgrass; [9]): 0
Barnyardgrass plant response rating (0 to 10 scale, 0 is no effect, 10 is complete control) (bamyardgrass; [10]): 0
Barnyardgrass plant response rating (bamyardgrass; [11]): 0
Barnyardgrass plant response rating (bamyardgrass; [12]): 0
Plant response rating, Wild oats (wild oat; [1]): 0
Plant response rating, Wild oats (wild oat; [2]): 0
Wild oats plant response rating (wild oat; [3]): 0
Wild oats plant response rating (wild oat; [4]): 2
Wild oats plant response rating (wild oat; [5]): 5
Plant response rating, Wild oats (wild oat; [6]): 5
Plant response rating, Wild oats (wild oat; [7]): 7
